Measurements from paper PMC3545992, “Trisubstituted Pyrazolopyrimidines as Novel Angiogenesis Inhibitors” (PLoS ONE, 2013).
Where two headings read alike, the source gives them in different places.

What was measured:
HUVECs [1] = assay: Scratch assay (migration assay); assay type: cell-based, human
Method: A: HMEC-1 cells were seeded in the same density as for the proliferation assay and treated with the respective compound at 30 µM for 72 h to test whether reduced cell numbers in the proliferation assay are due to inhibition of proliferation or to excessive cell death. No increase of detached, obviously dead or propidium iodide positive cells was detected. B and C: Confluent layers of HUVECs were scratched and the cells were allowed to migrate for 16 h in the presence or absence of 10 µM of the compounds. B: The columns indicate the area re-covered by migrating cells (n = 3, mean ± SEM, * p<0.05, One Way ANOVA, Dunnett). C: Scratches at endpoint, representative images taken out of three experiments.
HUVECs were seeded into a 24-well plate. After reaching confluency, cells were scratched using a 100 µl pipette tip. The wounded monolayers were washed twice with PBS containing Ca^2+/Mg^2+; then growth medium containing the indicated concentration of the compounds was added. After 16 h of migration, cells were washed and subsequently fixed with 4% paraformaldehyde. […] Images were taken using the TILLvisON system (TILL Photonics GmbH, Gräfelfing, Germany) and a CCD-camera connected to an Axiovert 200 microscope (Zeiss, Oberkochen, Germany). Quantitative image analysis of the cell covered area was done by Wimasis GmbH, Munich. A completely closed scratch was set as 100% migration, the area of the original open scratch was set as 0% migration.

HMEC-1 cells = assay: Crystal violet proliferation assay; assay type: cell-based, human; details: HMEC-1, 72 h, read-out: IC50 endothelial cell proliferation
Method: HMEC-1 cells were seeded to a density of 1,500 cells/well. After 24 h of incubation, a zero point control was stained with crystal violet. The remaining cells were left untreated as positive control or treated with 0.3-1-3-10–30 µM of the indicated compounds. After 72 h additional incubation, relative proliferation was determined by crystal violet staining and quantified as absorption at 550 nm.
HMEC-1 were seeded into 96-well-plates (1,500 cells/well). After 24 h, the cells were stimulated with the indicated compounds. At the same time point, cells in a reference plate were stained with crystal violet, serving as initial cell number. After 72 hours of stimulation, cells were fixed and stained with crystal-violet solution for 10 minutes, washed with water, and air dried. Crystal violet was eluted with dissolving buffer and absorbance was measured at 550 nm (Tecan Sunrise Absorbance reader, TECAN, Crailsheim, Germany). In a parallel series of experiments, cells seeded at the same cell density as in the proliferation assays were treated with 30 µM of the respective compound for 72 h. Afterwards, 10 µg/ml propidium iodide was added for 30 min to counterstain cells for membrane integrity. Phase contrast and fluorescence images were obtained with an inverted Nikon microscope (Ti, Nikon, Düsseldorf, Germany) equipped with a 10x objective.

HUVECs [2] = assay: Cell viability assay (CellTiter-Blue) in confluent HUVECs; assay type: cell-based, human; details: 30 µM, 16 h
Method: Figure 2 Cdk5 is expressed in HUVECs and HMEC-1 cells, and the compounds are not cytotoxic to endothelial cells at concentrations used in functional assays. A: Cdk5 protein expression in endothelial cells in comparison to human cortex. Cdk5 protein amount was analyzed by Western blot in samples of human cortex (HC), confluent HUVECs (HU) and HMEC-1 (HM). β-actin served as a loading control and for normalization of protein amount. Relative quantification (left panel) and one representative image (right panel) of three individual blots are shown. Note the much lower protein loading in the HC sample in the right panel. (n = 3, mean ± SEM, p>0.05, One Way ANOVA, Dunnett). B: Confluent HUVECs were treated for 16 h with 10 or 30 µM of the indicated compounds or left untreated as control. After addition of CellTiter-BlueTM Reagent, cells were incubated for 4 h and fluorescence was measured at 560 nm (n = 3, mean ± SEM, * p<0.05, One Way ANOVA, Dunnett).
HUVECs were seeded in 96-well plates. After reaching confluency, the cells were treated for 16 h with the indicated compounds or left untreated as control. After addition of CellTiter-Blue^TM Reagent (Promega Corporation, Madison, WI, USA), cells were incubated for additional 4 h and fluorescence was measured at 560 nm in a plate-reading photometer (SpectraFluor Plus; Tecan, Crailsheim, Germany).

endothelial cells [3] = tested on: endothelial cells; set-up: method as in PMID 21487803; details: cited from earlier work
endothelial cells [4] = tested on: endothelial cells; set-up: method as in PMID 20826806; details: 10 µM; cited from earlier work

SMILES | IC50 (HMEC-1 cells; Homo sapiens) [µM] | cell viability in comparison to control (HUVECs [2]) | also measured
CC(C)c1n[nH]c2c(NCc3ccccc3N)nc(NC3CCCCC3N)nc12 (centres unmarked) [LGR 1430, 7-(2-Aminobenzyl)amino-5-[(2-E/Z-aminocyclohexyl)amino]-3-isopropyl-1(2)H-pyrazolo-[4,3-d]pyrimidine] | 6.16 | – | effect on migration (in words) (HUVECs [1]; 30 µM, data not shown): no detectable effect
CC(C)c1n[nH]c2c(NCc3ccccc3)nc(NC[C@@H](C)O)nc12 [LGR 1667, 7-Benzylamino-5(R)-[(2-hydroxypropyl)amino]-3-isopropyl-1(2)H-pyrazolo[4,3-d]pyrimidine] | 9.54 | – | –
CC(C)c1n[nH]c2c(NCc3ccccc3N)nc(NC[C@H](C)O)nc12 [LGR 1695, 7-(2-Aminobenzyl)amino-5(S)-[(2-hydroxypropyl)amino]-3-isopropyl-1(2)H–pyrazolo[4,3-d]pyrimidine] | 10.2 | weak but significant decrease of viability | –
CC(C)n1cnc2c(NCc3ccccc3N)nc(NC[C@@H](C)O)nc21 [LGR 1730] | ~20 | weak but significant decrease of viability | effect on endothelial cell migration (in words) (HUVECs [1]; 10 µM, 16 h, HUVECs): no significant impact; IC50 (HMEC-1 cells): 18.2 µM
CC[C@H](CO)Nc1nc(NCc2ccccc2)c2ncn(C(C)C)c2n1 [roscovitine, (R)-roscovitine] | – | – | concentration at which proliferation only started to be reduced (endothelial cells [3]): 30 µM; reduction of migration (endothelial cells [4]): 20%
